Columns and labels:
GBM43 = assay: TMZ IC50 with simultaneous XRT; type: cell-based; conditions: Homo sapiens; treated with XRT (2 Gy) simultaneously
Method: For all studies, the cells and mice received XRT in accordance with the University of Chicago's radiation safety guidelines and protocols. All cells received a single dose of 2 Gy XRT. For animal studies, 10 Gy fractioned dose radiotherapy (2 Gy for 5 consecutive days) was used. The animals were irradiated with a lead cover shielding their entire body, with only their heads exposed. […] For in vivo studies, the mice received 2.5, 5, 10, or 30 mg/kg TMZ via intraperitoneal injection.

GBM43 glioma xenografts = assay: Intracranial GBM43 xenograft: TMZ, XRT and CRAd-S-pk7-loaded NSCs; type: in vivo, nude mice
Method: FIGS. 43A, 43B and 43C illustrate the in vivo efficacy of CRAd-Survivin-pk7 (CRAd-S-pk7)-loaded NSCs and XRT-TMZ treatment against human-derived glioma xenografts according to one embodiment. Intracranial GBM43 (3.5×10^5 cells per animal) was established, and the animals were treated for 5 consecutive days beginning on day 6 after tumor cell implantation. (FIG. 43A): Survival of animals treated with escalating doses of intraperitoneally administered TMZ (0, 5, 10, or 30 mg/kg). (FIG. 43B): Survival of animals treated with XRT (2 Gy) or a combination of XRT (2 Gy) and TMZ (2.5, 5, 10, or 30 mg/kg). (FIG. 43C): Survival of animals treated with the optimized dose of 2 Gy XRT and 5 mg/kg TMZ in addition to 5×10^5 or 3×10^6 NSCs loaded with 50 infectious units of CRAd-S-pk7. […] Abbreviations: ND, not determined; ns, no significance; NSC, neural stem cell; TMZ, temozolomide; XRT, radiation therapy.
FIGS. 45A and 45B illustrate the scheduling of CRAd-Survivin-pk7 (CRAd-S-pk7)-loaded NSC administration in vivo according to one embodiment. (FIG. 45A): Survival of animals treated with both therapeutic scheduling protocols. […] For each treatment group, five images were taken using the […]20 objective, and the number of positive cells was quantified per field of view (right). *, p<0.05; **, p<0.01; ***, p<0.001. […]

Compound: Cn1nnc2c(C(N)=O)ncn2c1=O [TMZ, temozolomide]
- IC50 (GBM43): 37 µM
- increase in survival vs XRT-treated animals (GBM43 glioma xenografts; TMZ 5 mg/kg plus XRT 2 Gy ×5): 7 days
- median survival (GBM43 glioma xenografts; TMZ 5 mg/kg plus XRT 2 Gy ×5 (FIG. 43B)): 31 days

— patent US10709745B2, “Tropic cell based virotherapy for the treatment of cancer” (priority 2013, dated 2020)
